Experimental data from ChEMBL document CHEMBL5634123, “Design and synthesis of 1H-benzo[d]imidazole selective HDAC6 inhibitors with potential therapy for multiple myeloma” (Eur J Med Chem, 2023).
The source made the active and inactive calls. The calls are words filed in the database; no cut-off is given here.

Assays:
[1] = Toxicity in Balb/c nude mouse xenografted with human RPMI-8226 cells assessed as adverse effect on serum total protein level at 10 to 40 mg/kg, po qd for 21 days administered consecutively; format: organism-based; details: in vivo, 504 h, dose 10-40 mg/kg, time 21 day
RPMI-8226 = assay: Induction of apoptosis in human RPMI-8226 cells assessed as increase in APAF-1 expression at 0.1 to 2.5 uM incubated for 24 hrs by Western blot analysis; format: functional, cell-based; details: dose 0.1-2.5 µM
[2] = Clearance in mouse at 1 mg/kg, iv; format: ADME, organism-based; details: in vivo

clearance [2]: 82.9 mL/min/kg
SMILES: Cn1c([C@@H](Cc2ccccc2)NCc2ccccc2)nc2cc(C(=O)NO)ccc21
Activity [1]: Non-Toxic
Activity (RPMI-8226): Active
